In publication PMC3461280 (Bioorganic & medicinal chemistry letters, 2012):

What was measured:
[1] = tested on: P450 isoforms; conditions: cited from earlier work
[2] = tested on: hERG potassium channel; conditions: cited from earlier work
[3] = cited from earlier work
[4] = cited from earlier work; remark: listed apart in the source
[5] = cited from earlier work; remark: listed apart in the source
[6] = biological target: human D3 receptor (Homo sapiens, UniProt P35462); format: cell-based; conditions: D3 functional mitogenesis assay
Chain of human D3 receptor (P35462 whole entry): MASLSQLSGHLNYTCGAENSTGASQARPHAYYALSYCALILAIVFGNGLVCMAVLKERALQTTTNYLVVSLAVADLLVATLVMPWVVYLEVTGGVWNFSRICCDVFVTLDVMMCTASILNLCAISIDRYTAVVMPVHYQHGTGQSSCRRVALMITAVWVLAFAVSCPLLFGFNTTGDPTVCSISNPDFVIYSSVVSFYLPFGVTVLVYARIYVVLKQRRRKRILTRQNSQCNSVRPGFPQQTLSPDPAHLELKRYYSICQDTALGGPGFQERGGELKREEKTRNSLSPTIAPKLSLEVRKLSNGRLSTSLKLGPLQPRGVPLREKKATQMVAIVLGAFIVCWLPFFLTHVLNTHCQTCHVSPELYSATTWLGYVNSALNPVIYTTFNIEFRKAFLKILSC

[7] = rat; cited from earlier work

Row | functional activity at the D3 receptor [6] | SMILES | CNS penetration [4] | aqueous solubility [5] | other results
1 | – | Cc1ncoc1-c1nnc(SCCCN2CC3CC3(c3ccc(C(F)(F)F)cc3F)C2)n1C (stereo not shown) [Compound 3] | good | – | inhibition on all the P450 isoforms [1]: weak inhibition; inhibition at the hERG channel [2]: weak inhibition; oral bioavailability [3]: excellent
2 | – | CCCN(CC[C@H]1CC[C@H](NC(=O)/C=C/c2ccccc2)CC1)[C@H]1CCc2nc(N)sc2C1 [Compound 10] | – | excellent | –
3 | – | CCCN(CC[C@H]1CC[C@H](NC(=O)c2ccc3ccccc3c2)CC1)[C@H]1CCc2nc(N)sc2C1 [Compound 11] | – | excellent | –
4 | full agonists | CCCN(CC[C@H]1CC[C@H](NC(=O)c2cccc(-c3noc(C)n3)c2)CC1)[C@H]1CCc2nc(N)sc2C1 [Compound 38] | – | – | –
5 | full agonists | CCCN(CC[C@H]1CC[C@H](NS(=O)(=O)c2cccnc2Cl)CC1)[C@H]1CCc2nc(N)sc2C1 [Compound 52] | – | – | –
6 | – | Cc1nc(-c2cccc(C(=O)N[C@H]3CC[C@H](CCN4CCc5ccc(S(C)(=O)=O)cc5CC4)CC3)c2)no1 [SB-414796] | good | – | bioavailability [7]: excellent
